Laboratory results taken from patent publication US10689400B2, “Macrocycle kinase inhibitors” (Turning Point Therapeutics, Inc., priority 2016, dated 2020).

Assays:
[1] = test system: KM12 cells (harboring endogenous TPM3-TRKA fusion gene); assay: KM12 cell proliferation assay (CellTiter-Glo, 72 hours); type: cell-based; settings: Homo sapiens, KM12 colorectal cell line, 72 hours incubation
Description: (§1) Colorectal cell lines KM 12 (harboring endogenous TPM3-TRKA fusion gene) cells were cultured in DMEM medium, supplemented with 10% fetal bovine serum and 100 U/mL of penicillin/streptomycin. 5000 cells were seeded in 384 well white plate for 24 hours before compounds treatment. Cell proliferation was measured using CellTiter-Glo luciferase-based ATP detection assay (Promega) following the manufactures's protocol after 72 hours incubation. IC50 determinations were performed using GraphPad Prism software (GraphPad, Inc., San Diego, Calif.).
as §1, with “Alternatively: Colorectal” for “Colorectal”, “line KM12” for “lines KM 12”, “DMEM medium, supplemented with 10% fetal bovine serum and 100 U/mL of penicillin/streptomycin. Essential thrombocythemia cell line SET-2 cells (harboring endogenous JAK2 V618F point mutation) were cultured in RPMI” for “DMEM”

[2] = test system: SET-2 cells (harboring endogenous JAK2 V618F point mutation); assay: SET-2 cell proliferation assay (CellTiter-Glo, 72 hours); type: cell-based; settings: Homo sapiens, SET-2 essential thrombocythemia cell line, 72 hours incubation, read-out: Cell Proliferation JAK2 SET2 Cell IC50
Description: as §1, with “Alternatively: Colorectal” for “Colorectal”, “line KM12” for “lines KM 12”, “DMEM medium, supplemented with 10% fetal bovine serum and 100 U/mL of penicillin/streptomycin. Essential thrombocythemia cell line SET-2 cells (harboring endogenous JAK2 V618F point mutation) were cultured in RPMI” for “DMEM”

BTK kinase = molecular target: T1, BTK kinase (Homo sapiens, UniProt Q06187); assay: BTK biochemical kinase assay (radiometric; Eurofins KinaseProfiler / Reaction Biology); settings: ATP 10 μM
T1 construct: purchased Eurofins (KinaseProfiler) / Reaction Biology Corporation
T1 sequence (Q06187 whole entry): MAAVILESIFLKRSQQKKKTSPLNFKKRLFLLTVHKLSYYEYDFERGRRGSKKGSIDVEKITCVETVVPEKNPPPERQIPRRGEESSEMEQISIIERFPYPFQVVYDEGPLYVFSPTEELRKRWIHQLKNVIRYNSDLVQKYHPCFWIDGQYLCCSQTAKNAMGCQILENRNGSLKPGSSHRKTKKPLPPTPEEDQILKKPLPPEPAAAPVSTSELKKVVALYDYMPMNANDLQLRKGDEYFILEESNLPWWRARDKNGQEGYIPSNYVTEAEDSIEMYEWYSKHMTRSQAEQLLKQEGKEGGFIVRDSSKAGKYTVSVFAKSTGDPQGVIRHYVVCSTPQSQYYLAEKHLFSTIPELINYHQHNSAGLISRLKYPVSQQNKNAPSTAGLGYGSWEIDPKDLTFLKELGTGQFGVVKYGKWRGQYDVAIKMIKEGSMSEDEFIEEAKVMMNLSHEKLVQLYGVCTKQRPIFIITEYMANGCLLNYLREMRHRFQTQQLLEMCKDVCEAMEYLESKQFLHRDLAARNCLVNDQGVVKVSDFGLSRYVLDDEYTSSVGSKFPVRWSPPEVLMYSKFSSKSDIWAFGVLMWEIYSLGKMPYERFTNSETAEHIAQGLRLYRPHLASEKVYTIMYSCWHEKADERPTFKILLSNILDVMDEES
Description: The Compounds were tested against BTK kinase using the Eurofins standard KinaseProfiler™ assays and following the relevant standard operating procedures. Protein kinases were assayed in a radiometric format. Full details of the assay for each kinase are available on the Eurofins website, or in the accompanying protocol document. All compounds were prepared to a working stock of 50× final assay concentration in 100% DMSO. Where appropriate, more concentrated stocks were diluted manually to 50× using 100% DMSO. Compounds supplied as powders were reconstituted to a 10 mM stock in 100% DMSO before further dilution to 50×. The required volume of the 50× stock of test compound was added to the assay well, before a reaction mix containing the enzyme and substrate was added. The reaction was initiated by the addition of ATP at the selected 10 μM concentration. There was no pre-incubation of the compound with the enzyme/substrate mix prior to ATP addition. For IC50 determinations, data are analysed using XLFit version 5.3 (ID Business Solutions). Sigmoidal dose-response (variable slope) curves are fit based on the mean result for each test concentration using non-linear regression analysis. Where the top and/or bottom of the curve fall >10% out with 100 and 0, respectively, either or both of these limits may be constrained at 100 and 0, provided that the QC criterion on R^2 is met.
The BTK biochemical kinase assay was also performed at Reaction Biology Corporation (www.reactionbiology.com, Malvern, Pa.) following the procedures described in the reference (Anastassiadis T, et al Nat Biotechnol. 2011, 29, 1039). Specific kinase/substrate pairs along with required cofactors were prepared in reaction buffer; 20 mM Hepes pH 7.5, 10 mM MgCl2, 1 mM EGTA, 0.02% Brij35, 0.02 mg/ml BSA, 0.1 mM Na3VO4, 2 mM DTT, 1% DMSO (for specific details of individual kinase reaction components see Supplementary Table 2). Compounds were delivered into the reaction, followed ˜20 minutes later by addition of a mixture of ATP (Sigma, St. Louis Mo.) and ^33P ATP (Perkin Elmer, Waltham Mass.) to a final concentration of 10 μM. Reactions were carried out at room temperature for 120 min, followed by spotting of the reactions onto P81 ion exchange filter paper (Whatman Inc., Piscataway, N.J.). Unbound phosphate was removed by extensive washing of filters in 0.75% phosphoric acid. […] IC50 values and curve fits were obtained using Prism (GraphPad Software).

SMILES | IC50 (BTK kinase) | IC50 [1] | IC50 [2]
C[C@H]1CNC(=O)c2cnn3ccc(nc23)N[C@H](C)c2cc(F)cc(F)c2O1 [Compound 1, (7S,13R)-9,11-difluoro-7,13-dimethyl-6,7,13,14-tetrahydro-1,15-ethenopyrazolo[4,3-f][1,4,8,10]benzoxatriazacyclotridecin-4(5H)-one] | 2.47 nM | 0.2 nM | 120 nM
C[C@H]1CNC(=O)c2cnn3ccc(nc23)N[C@H](C)c2cc(F)cc(Cl)c2O1 [Compound 8, (7S,13R)-9-chloro-11-fluoro-7,13-dimethyl-6,7,13,14-tetrahydro-1,15-ethenopyrazolo[4,3-f][1,4,8,10]benzoxatriazacyclotridecin-4(5H)-one] | 3.97 nM | 0.2 nM | 83.7 nM
C[C@H]1Nc2ccn3ncc(c3n2)C(=O)NC[C@@H](CO)Oc2ccc(F)c(Cl)c21 [Compound 4, (7S,13R)-12-chloro-11-fluoro-7-(hydroxymethyl)-13-methyl-6,7,13,14-tetrahydro-1,15-ethenopyrazolo[4,3-f][1,4,8,10]benzoxatriazacyclotridecin-4(5H)-one] |  | 45.4 nM | 3000 nM
C[C@H]1Nc2ccn3ncc(c3n2)C(=O)NC[C@@H](CO)Oc2c(F)cc(F)cc21 [Compound 3, (7S,13R)-9,11-difluoro-7-(hydroxymethyl)-13-methyl-6,7,13,14-tetrahydro-1,15-ethenopyrazolo[4,3-f][1,4,8,10]benzoxatriazacyclotridecin-4(5H)-one] |  | 21.5 nM | 15.5 nM
C[C@H]1CNC(=O)c2cnn3ccc(nc23)N[C@H](C)c2c(ccc(F)c2Cl)O1 [Compound 2, (7S,13R)-12-chloro-11-fluoro-7,13-dimethyl-6,7,13,14-tetrahydro-1,15-ethenopyrazolo[4,3-f][1,4,8,10]benzoxatriazacyclotridecin-4(5H)-one] | 2.53 nM | 5.1 nM | 3000 nM
C[C@H]1CNC(=O)c2cnn3ccc(nc23)N[C@H](C)c2cc(F)cc(Br)c2O1 [Compound 7, (7S,13R)-9-bromo-11-fluoro-7,13-dimethyl-6,7,13,14-tetrahydro-1,15-ethenopyrazolo[4,3-f][1,4,8,10]benzoxatriazacyclotridecin-4(5H)-one] |  | 0.2 nM | 6.7 nM
CC(C)N1Cc2cc(F)cc(F)c2OCCNC(=O)c2cnn3ccc1nc23 [Compound 9, 9,11-difluoro-14-(propan-2-yl)-6,7,13,14-tetrahydro-1,15-ethenopyrazolo[4,3-f][1,4,8,10]benzoxatriazacyclotridecin-4(5H)-one] | 22.2 nM | 5.2 nM | 132 nM
C[C@H]1Nc2ccn3ncc(c3n2)C(=O)NCCOc2c(Cl)cc(F)cc21 [Compound 6, (13R)-9-chloro-11-fluoro-13-methyl-6,7,13,14-tetrahydro-1,15-ethenopyrazolo[4,3-f][1,4,8,10]benzoxatriazacyclotridecin-4(5H)-one] | 64.4 nM | 4.2 nM | 78.2 nM
C[C@H]1Nc2ccn3ncc(c3n2)C(=O)NCCOc2c(Br)cc(F)cc21 [Compound 5, (13R)-9-bromo-11-fluoro-13-methyl-6,7,13,14-tetrahydro-1,15-ethenopyrazolo[4,3-f][1,4,8,10]benzoxatriazacyclotridecin-4(5H)-one] | 60 nM | 5 nM | 200 nM
C[C@H]1CNC(=O)c2cnn3ccc(nc23)N[C@H](C)c2c(ccc(F)c2F)O1 [Compound 11, (7S,13R)-11,12-difluoro-7,13-dimethyl-6,7,13,14-tetrahydro-1,15-ethenopyrazolo[4,3-f][1,4,8,10]benzoxatriazacyclotridecin-4(5H)-one] | 14.2 nM | 0.2 nM | 3.9 nM
CC(C)N1Cc2cc(F)cc(Cl)c2OCCNC(=O)c2cnn3ccc1nc23 [Compound 10, 9-chloro-11-fluoro-14-(propan-2-yl)-6,7,13,14-tetrahydro-1,15-ethenopyrazolo[4,3-f][1,4,8,10]benzoxatriazacyclotridecin-4(5H)-one] | 179 nM | 0.1 nM | 1480 nM

Further lines, with some results ahead:

IC50 (BTK kinase) | SMILES | IC50 [1] | IC50 [2]
48 nM | C[C@H]1Nc2ccn3ncc(c3n2)C(=O)NCCOc2c(O)cc(F)cc21 [Compound 17, (13R)-11-fluoro-9-hydroxy-13-methyl-6,7,13,14-tetrahydro-1,15-ethenopyrazolo[4,3-f][1,4,8,10]benzoxatriazacyclotridecin-4(5H)-one] | 15.4 nM | 600 nM
476 nM | C[C@H]1Nc2ccn3ncc(c3n2)C(=O)NCCOc2c(-c3cnn(C)c3)cc(F)cc21 [Compound 19, (13R)-11-fluoro-13-methyl-9-(1-methyl-1H-pyrazol-4-yl)-6,7,13,14-tetrahydro-1,15-ethenopyrazolo[4,3-f][1,4,8,10]benzoxatriazacyclotridecin-4(5H)-one] | 53.4 nM | 1000 nM
5.54 nM | CC(C)N1Cc2c(ccc(F)c2Cl)OCCNC(=O)c2cnn3ccc1nc23 [Compound 13, 12-chloro-11-fluoro-14-(propan-2-yl)-6,7,13,14-tetrahydro-1,15-ethenopyrazolo[4,3-f][1,4,8,10]benzoxatriazacyclotridecin-4(5H)-one] | 300 nM | 10000 nM
450 nM | COc1cc(F)cc2c1OCCNC(=O)c1cnn3ccc(nc13)N[C@@H]2C [Compound 16, (13R)-11-fluoro-9-methoxy-13-methyl-6,7,13,14-tetrahydro-1,15-ethenopyrazolo[4,3-f][1,4,8,10]benzoxatriazacyclotridecin-4(5H)-one] | 13.9 nM | 300 nM
238 nM | Cc1nn(C)cc1-c1cc(F)cc2c1O[C@@H](C)CNC(=O)c1cnn3ccc(nc13)N[C@@H]2C [Compound 20, (7S,13R)-9-(1,3-dimethyl-1H-pyrazol-4-yl)-11-fluoro-7,13-dimethyl-6,7,13,14-tetrahydro-1,15-ethenopyrazolo[4,3-f][1,4,8,10]benzoxatriazacyclotridecin-4(5H)-one] | 6.4 nM | 
0.536 nM | CC(C)N1Cc2c(ccc(F)c2Cl)O[C@@H](C)CNC(=O)c2cnn3ccc1nc23 [Compound 14, (7S)-12-chloro-11-fluoro-7-methyl-14-(propan-2-yl)-6,7,13,14-tetrahydro-1,15-ethenopyrazolo[4,3-f][1,4,8,10]benzoxatriazacyclotridecin-4(5H)-one] | 0.2 nM | 1500 nM
60 nM | C[C@H]1CNC(=O)c2cnn3ccc(nc23)N[C@H](C)c2cc(F)cc(-c3cnn(C)c3)c2O1 [Compound 18, (7S,13R)-11-fluoro-7,13-dimethyl-9-(1-methyl-1H-pyrazol-4-yl)-6,7,13,14-tetrahydro-1,15-ethenopyrazolo[4,3-f][1,4,8,10]benzoxatriazacyclotridecin-4(5H)-one] | 23.5 nM | 600 nM
9.67 nM | CC(C)N1Cc2cc(F)cc(F)c2OCCCNC(=O)c2cnn3ccc1nc23 [Compound 12, 10,12-difluoro-15-(propan-2-yl)-5,6,7,8,14,15-hexahydro-4H-1,16-ethenopyrazolo[4,3-g][1,5,9,11]benzoxatriazacyclotetradecin-4-one] | 0.2 nM | 5000 nM
154 nM | CC(C)Oc1cc(F)cc2c1OCCNC(=O)c1cnn3ccc(nc13)N[C@@H]2C [Compound 15, (13R)-11-fluoro-13-methyl-9-[(propan-2-yl)oxy]-6,7,13,14-tetrahydro-1,15-ethenopyrazolo[4,3-f][1,4,8,10]benzoxatriazacyclotridecin-4(5H)-one] | 2 nM | 500 nM
